One data set relates to NUGC3 cells (p53-Y220C). Description: Cell viability assay (CellTiter-Fluor / CellTiter-Glo 2.0), NUGC3. It is filed as cell-based, human. The following applies: for IC50: Homo sapiens, NUGC-3, 72 h, Y220C cell line. On the procedure:
(§1) We also envisaged that masking the carboxylate of MB710 as a simple ethylamide MB725 might influence cell permeability and uptake of the scaffold.
(§2) All cell lines were cultured as previously described. Cell viability was measured in quadruplicate (technical replicates) using the CellTiter-Fluor or CellTiter-Glo 2.0 cell viability assay kits (Promega, USA) as previously described.
(Cellular ATP, detected with luciferase, serves as a proxy for viable cell number.)

Data set [1] concerns NUGC4 cells (wild-type p53). Nature of the data set: Cell viability assay, NUGC4. It is filed as cell-based. The conditions noted are these: Homo sapiens, NUGC-4; 72 h, p53 WT. On the procedure:
as §1, §2

The next data set deals with p53 cancer mutant Y220C. The following applies: cited from earlier work.
For data set [2], the system named is WI38 cells (non-cancerous fibroblast, p53 WT). Nature of the data set: Cell viability assay, WI38. The following applies: Homo sapiens, WI-38, 72 h, read-out: IC50 WI38.
The subject of the next data set is BXPC-3 cells (p53-Y220C). Nature of the data set: Cell viability assay, BXPC3. The following applies: BXPC-3, 72 h; for IC50: Homo sapiens, read-out: IC50 BXPC3.
The target in data set [3] is T1, stabilized p53-Y220C DBD (residues 94–312) (Homo sapiens, UniProt P04637, M133L/N239Y/N268D/V203A/Y220C).
T1 construct: Stabilized p53-Y220C DBD (residues 94–312) was expressed and purified; 6xHis / lipoyl domain / TEV protease cleavage site (N, cleaved yes); made in house; host or cells: E. coli C41
Nature of the data set: Differential scanning fluorimetry (DSF), thermal stabilization of Y220C. The data set is classed as binding. The conditions noted are these: 8 μM protein, 10 × SYPRO Orange, 250 μM ligand. On the procedure:
DSF was performed as described. […] All samples were measured in triplicate.
(In general: Differential scanning fluorimetry follows unfolding on heating by fluorescence.)

The next data set concerns the target T2, 15N-labeled T-p53C-Y220C (Homo sapiens, UniProt P04637, M133L/N239Y/N268D/V203A/Y220C).
T2 construct: Stabilized p53-Y220C DBD (residues 94–312) was expressed and purified; 6xHis / lipoyl domain / TEV protease cleavage site (N, cleaved yes); made in house; host or cells: E. coli C41
Description: 1H/15N-HSQC NMR titration. It is filed as binding. The following applies: average of at least three fits of shifted peaks. The text has this:
Compound stock solutions were mixed with protein immediately before the NMR measurement.

Another data set concerns HUH-7 cells (p53-Y220C). Nature of the data set: Cell viability assay, HUH7. It is filed as cell-based, human. On the procedure:
as §1, §2

Data set [4] deals with HUH-7 and HUH-7 p53-Y220C KO cells. Description: Cell viability, HUH-7 versus isogenic HUH-7 p53-Y220C KO. It is filed as cell-based, human. The following applies: 72 h. The text has this: (§3) To confirm that MB725 mediated anticancer effects are dependent on p53-Y220C, we additionally tested the compound in HUH-7 and an in-house CRISPR generated isogenic p53-Y220C knock-out (KO) HUH-7 cell line (Fig. 8). This new cell line contains a frameshift mutation at codon 124 on one allele and deletion of amino acids 125–223 on the other allele, leading to functional inactivation of the p53 DNA-binding domain (aa 92–292). MB725 decreased cell viability by ca. 30–40% more potently in HUH-7 than in the isogenic HUH-7 p53-Y220C KO (Fig. 8, upper panel).
Fig. 8 Assessment of p53-Y220C dependent effect of MB725. Treatment of HUH-7 (p53-Y220C) and HUH-7 p53-Y220C KO cell lines with MB725 for 72 h underscores the enhanced cytotoxicity of MB725 in the presence of p53-Y220C (left panel). […] Cell viability was measured in quadruplicate and normalized against the values of blank (viability = 1) and no cell (viability = 0) controls (left panel). […] Relative mRNA fold-change was measured in triplicate and normalized against untreated sample according to the ΔΔCt method. […]
(§4) WI-38 and BXPC-3 (p53-Y220C) cell lines were purchased from ATCC and HUH-7 (p53-Y220C+/+), HUH-6 (wild-type p53+/+). […] Cell viability was measured in quadruplicate (technical replicates) using the CellTiter-Fluor or CellTiter-Glo 2.0 cell viability assay kits (Promega, USA) as previously described. […]

Data set [5] is described as follows: Cell viability in other cell lines (lacking Y220C). The conditions noted are these: human, at concentrations below 40 μM. The data set is classed as cell-based.
Excerpt: We expected our compounds to show a strong cell viability reduction in cancer cell lines containing the Y220C mutation (NUGC3, HUH-7, BXPC-3), while showing relatively low or no effect on cell lines lacking this mutation (all others). We also envisaged that masking the carboxylate of MB710 as a simple ethylamide MB725 might influence cell permeability and uptake of the scaffold. […] In particular, NUGC3 was the most sensitive cell line.
Fig. 6 Effects of Y220C binders on cancer cell viability. Relative cell viability (Y-axis) of representative cell lines after 72 h treatment with increasing concentrations (X-axis, μM) of 60 (A), MB710 (B), MB725 (C), and previously reported lead compounds PK083 (D), PK7088 (E) and PK5196 (F). The cell line employed in each experiment and their respective p53 status are shown. […] Cell viability was measured in quadruplicate and normalized against the values of blank (viability = 1) and no cell (viability = 0) controls. Data are shown as mean ± SEM.
as §4

Data set [6] deals with p53 target genes in HUH-7 and HUH-7 p53-Y220C KO cells. Nature of the data set: Real-time PCR of p53 target genes, HUH-7 versus HUH-7 p53-Y220C KO. The data set is classed as cell-based, human. The conditions noted are these: 18 h.
Excerpt: as §3
Fig. 8 Assessment of p53-Y220C dependent effect of MB725. Treatment of HUH-7 (p53-Y220C) and HUH-7 p53-Y220C KO cell lines with MB725 for 72 h underscores the enhanced cytotoxicity of MB725 in the presence of p53-Y220C (left panel). […] Cell viability was measured in quadruplicate and normalized against the values of blank (viability = 1) and no cell (viability = 0) controls (left panel). Data are shown as mean ± SEM (Unpaired t-test to test for significance in HUH7 and HUH7 p53 KO viability reduction; *p < 0.05; **p < 0.01; ***p < 0.001). Relative mRNA fold-change was measured in triplicate and normalized against untreated sample according to the ΔΔCt method. […]
Real-time PCR experiments were performed as described. […] The ΔΔCt method was used to quantify relative mRNA levels. Each sample was measured in triplicate.
On the technique in general: In qPCR the cycle at which signal appears reflects the starting amount.

Data set [7] can be described thus: Solubility (qualitative observation). The data set is classed as physicochemical.
Another data set has as its system SW1088 cells (p53-R273C). Description: Cell viability assay, SW1088. The following applies: Homo sapiens, SW1088, 72 h, read-out: IC50 SW1088.

The structures appear in SMILES notation. Some results are limits rather than exact numbers.

What is called IC50 is the concentration needed to halve the response being measured. What is called Kd is the free concentration of one partner at which half of the binding sites on the other are occupied at equilibrium, for simple one-to-one binding. With `CCn1c2ccccc2c2cc(CNC)ccc21` [Compound 1], the IC50 was 14 µM in the data set on NUGC3 cells (p53-Y220C), 9 µM in [1], 22 µM in data set [2] and 43 µM with BXPC-3 cells (p53-Y220C). The Kd at p53 cancer mutant Y220C is 140 µM.
A word on the ΔTm: it is the shift of the melting midpoint relative to a reference. On to `CCCCOc1cc(C(=O)O)c(O)c(I)c1-n1cccc1` [Compound 52, 5-butoxy-2-hydroxy-3-iodo-4-(1H-pyrrol-1-yl)benzoic acid], for which, in data set [3], the ΔTm at 250 µM came out at 1.4 °C. Besides, the equilibrium dissociation constant (Kd) on 15N-labeled T-p53C-Y220C stood at 30 µM.
As a reminder, the cell viability is a read-out of living cells in per cent, often relative to untreated cells. The low end stands for a greater loss of cells, the high end for better survival. Broadly, the viability is a read-out of living cells in per cent, often relative to untreated cells. High values mean less harm to the cells, low ones more harm to the cells. With `CCNC(=O)c1c(O)c(I)c(-n2cccc2)c2sc(N(CC)CC)nc12` [Compound 72, 2-(diethylamino)-N-ethyl-5-hydroxy-6-iodo-7-(1H-pyrrol-1-yl)benzo[d]thiazole-4-carboxamide], the IC50 with NUGC3 cells (p53-Y220C) is 10 µM; in [1], greater than 120 µM; in the data set with HUH-7 cells (p53-Y220C) (Homo sapiens, Huh-7, 72 h, Y220C cell line), 10 µM; in data set [2], greater than 120 µM; in the data set with BXPC-3 cells (p53-Y220C) it was 18 µM; with SW1088 cells (p53-R273C) it was greater than 120 µM. Moreover, the “concentration at which an almost maximum effect was achieved” value in the data set on NUGC3 cells (p53-Y220C) (NUGC3, 72 h) is given as “below 10 μM”. The cell viability in the data set with NUGC3 cells (p53-Y220C) (NUGC3, 72 h, at concentrations below 40 μM) is given as 10%; in the data set on HUH-7 cells (p53-Y220C) (HUH-7, 72 h, at concentrations below 40 μM), 30%; in the data set on BXPC-3 cells (p53-Y220C) (at concentrations below 40 μM), 30%. In data set [4], the “cell viability decreased more potently in HUH-7 than in isogenic HUH-7 p53-Y220C KO” value was 30–40%. The compound further yielded a viability at 72 h in data set [5] greater than 80%. In data set [6], the “increase of mRNA levels of p53 target genes (PUMA (BBC3), p21, MDM2, NOXA, BAX)” value is recorded as “more efficiently in HUH-7 than in HUH-7 p53-Y220C KO”. In data set [7], the “solubility (in words)” value was “reduced solubility”.

Source of the values: publication PMC5986712, “Aminobenzothiazole derivatives stabilize the thermolabile p53 cancer mutant Y220C and show anticancer activity in p53-Y220C cell lines” (European Journal of Medicinal Chemistry, 2018).
